{"source": "paper PMC9866588", "about": "“Novel 7-Chloro-4-aminoquinoline-benzimidazole Hybrids as Inhibitors of Cancer Cells Growth: Synthesis, Antiproliferative Activity, in Silico ADME Predictions, and Docking” (Molecules, 2023)", "key": {"[1]": {"test_system": "MCF-7 (human breast adenocarcinoma) cells", "test": "MTT antiproliferative assay, MCF-7", "assay_type": "cell-based", "details": "MCF7, 72 h, mean ± SD of three independent experiments", "procedure": "(§1) The growth inhibition activity was assessed according to the slightly modified procedure performed at the National Cancer Institute, Developmental Therapeutics Program.\n(§2) The examined compounds were dissolved in DMSO (1 × 10^−2 M). The experiments were carried out on seven human tumor cell lines and a normal cell line. The following cell lines were used: HeLa (human cervical adenocarcinoma; purchased from ATCC), CaCo-2 (human colorectal adenocarcinoma), MCF-7 (human breast adenocarcinoma), CCRF-CEM (human acute lymphoblastic leukemia), Hut78 (T-cell lymphoma), THP-1 (acute monocytic leukemia), Burkitt lymphoma (Raji), and MDCK1 (Madine–Darby canine kidney). The MDCK1 cells were used between 24 and 26 passages.\n(§3) The adherent cells were cultured in Dulbecco’s modified Eagle medium—DMEM (Gibco, Termo Fisher Scientific Inc., Leicestershire, England, UK), supplemented with 10% heat-inactivated fetal bovine serum (FBS, Gibco, Termo Fisher Scientific Inc., Leicestershire, England, UK), 2 mM glutamine, and 100U/0.1mg penicillin/streptomycin. The cells in suspension were cultured in RPMI 1640 (Gibco, Termo Fisher Scientific Inc., Leicestershire, England, UK) medium, supplemented with 10% FBS (Gibco, Termo Fisher Scientific Inc., Leicestershire, England, UK), 2 mM glutamine, 1 mM sodium pyruvate, and 10 mM HEPES. The cells were grown in a humidified atmosphere under the conditions of 37 °C/5% of CO2 gas in the CO2 incubator (IGO 150 CELLlife^TM, JOUAN, Thermo Fisher Scientific, Waltham, MA, USA).\n(§4) The adherent cells (HeLa, CaCo-2, MCF-7, and MDCK-1) were plated in 96-well flat bottom plates (Greiner, Frickenhausen, Austria) at a concentration of 2 × 10^4 cells/mL. The suspension cells (Raji, THP-1, CCRF-CEM and Hut78) were plated in 96-well microtiter plates (Sarstead, Newton, NC, USA) at a concentration of 1 × 10^5 cells/mL. Twenty-four hours later, the cells were treated with test agents in […] and incubated for a further 72 h. The working dilutions were freshly prepared on the day of testing. The solvent was also tested for eventual inhibitory activity by adjusting its concentration to be the same as in the working concentrations. After 72 h of incubation, the cell growth rate was evaluated by performing the MTT assay, which detects dehydrogenase activity in viable cells. For this purpose, upon completion of the incubation period, the growth medium was discarded and 50 μL of MTT was added to each well at a concentration of 5 mg/mL. After four hours of incubation at 37 °C, the water insoluble MTT-formazan crystals were dissolved in 150 μL of dimethyl-sulfoxide (DMSO) for the adherent cells and in 10% SDS with 0.01 mol/L HCl for the cells grown in suspension. The absorbance (OD, optical density) was measured on a microplate reader (iMark, BIO RAD, Hercules, CA, USA) at 595 nm.\n(§5) The percentage of live cells was calculated as follows: % = OD (sample) − OD (background)/OD (control) − OD (background) × 100.\n(§6) The optical density (OD) of the background for the adherent cells is the OD of the MTT solution and DMSO; the OD (background) for the suspension cells is the OD of the culture medium with MTT and 10% SDS with 0.01 mol/L HCl; the OD (control) is the OD of the cells grown without the tested compounds.\n(§7) The calculation of the GI50 value curves and QC analysis was performed using the Excel tools and GraphPadPrism software (La Jolla, CA, USA), v. 5.03. Briefly, individual concentration effect curves are generated by plotting the logarithm of the concentration of the tested compounds (X) vs. the corresponding percent inhibition values (Y) using the least squares fit. The best-fit GI50 values are calculated using log (inhibitor) versus normalized response—variable slope equation, where Y Ľ 100/(1 ţ 10 ((LogIC50 _ X) × HillSlope)). The QC criteria parameters (Z0, S:B, R2, HillSlope) were checked for every GI50 curve."}, "[2]": {"test_system": "THP-1 (acute monocytic leukemia) cells", "test": "MTT antiproliferative assay, THP-1", "assay_type": "cell-based, human", "procedure": "as §1, §2, §3, §4, §5, §6, §7"}, "[3]": {"test_system": "CaCo-2 (human colorectal adenocarcinoma) cells", "test": "MTT antiproliferative assay, CaCo-2", "assay_type": "cell-based", "details": "72 h, mean ± SD of three independent experiments", "procedure": "as §1, §2, §3, §4, §5, §6, §7"}, "[4]": {"test_system": "Hut78 (T-cell lymphoma) cells", "test": "MTT antiproliferative assay, HuT78", "assay_type": "cell-based, human", "procedure": "as §1, §2, §3, §4, §5, §6, §7"}, "HuT78 cells": {"test_system": "HuT78 cells", "test": "Mitochondrial membrane potential (∆Ψm), TMRE flow cytometry", "assay_type": "cell-based, human", "details": "HuT78, 5 μM, 24 h", "procedure": "Changes in the (∆Ψm) were measured using TMRE (tetramethylrhodamine, ethyl ester and perchlorate) dye. In brief, the tested cells (HuT 78) were plated in 6-well plates at a concentration of 5 × 10^5 cells per well and treated with 5 μM of the compounds 5d and 12d. After 24 h of treatment, the cells were collected, centrifuged for 6 min at 1100 rpm, and stained with 200 nM of TMRE dye according to the kit protocol (TMRE Mitochondrial Membrane Potential Assay Kit, abcam, Cambridge, UK). The positive control cells were treated with 20 μM FCCP (carbonyl cyanide-p-trifluoromethoxyphenylhydrazone) for 10 min. The cells were analyzed by flow cytometry (BD FACSCalibur, Becton Dickinson, San Jose, CA, USA) and FlowJo software (FlowJo, LLC, Ashland, OR, USA)."}, "THP-1 cells": {"test_system": "THP-1 cells", "test": "Flow cytometry analysis of cell cycle, THP-1", "assay_type": "cell-based, human", "details": "THP-1, 5 μM, 24 h", "procedure": "To analyze the effects of the selected compounds (5d, 8d, and 12d) on the cell cycle of the HuT78 and THP-1 cells, the cells were seeded in 6-well plates (5 × 10^5 cells per well) and treated for 24 h with the selected compounds 5d and 12d (5 μM). The cells were then collected and fixed in cold 70% ethanol. The fixed samples were stained with 15 µg/mL of propidium iodide (PI) at room temperature and analyzed by flow cytometry (FACS Canto II, BD Biosciences). The results were analyzed using FlowLogic software.\nOne-way ANOVA analysis of variance was performed in the MedCalc statistical program for the analysis of the cell cycle. p-values of less than 0.05 were considered to be statistically significant."}, "[5]": {"test_system": "normal (MDCK1) and tumor cell lines", "test": "MTT antiproliferative assay, ranges stated over several cell lines", "assay_type": "cell-based", "details": "MDCK1; range over tumor cell lines; read-out: GI50 range, tumor cell lines", "procedure": "as §1, §2, §3, §4, §5, §6, §7"}, "[6]": {"test": "MTT antiproliferative assay, ranges stated over several cell lines", "assay_type": "cell-based", "details": "human (tumor cell lines) and dog (MDCK1); abstract, range over cell lines; read-out: GI50 range (strong cytotoxic activity)", "procedure": "as §1, §2, §3, §4, §5, §6, §7"}}, "data": [{"smiles": "Clc1ccc2c(Nc3cccc(-c4nc5ccccc5[nH]4)c3)ccnc2c1", "note": "[Compound 5d, N-(3-(1H-benzo[d]imidazol-2-yl)phenyl)-7-chloroquinolin-4-amine]", "values": [{"measurement": "GI50", "setting": "[1]", "result": "33600 ± 8300", "unit": "nM"}, {"measurement": "GI50", "setting": "[2]; Homo sapiens, THP-1, 72 h, MTT, mean ± SD of three independent experiments, read-out: GI50 THP1", "result": "600 ± 300", "unit": "nM"}, {"measurement": "tumor selectivity index (SI) THP1", "setting": "[2]; with respect to MDCK1 cells", "result": 34}, {"measurement": "GI50", "setting": "[3]", "result": "1000 ± 100", "unit": "nM"}, {"measurement": "GI50", "setting": "[4]; Homo sapiens, HuT78, 72 h, MTT, mean ± SD of three independent experiments", "result": "400 ± 300", "unit": "nM"}, {"measurement": "tumor selectivity index (SI) HuT78", "setting": "[4]; with respect to MDCK1 cells", "result": 51}, {"measurement": "cells with mitochondrial membrane disruption / change in ∆Ψm", "setting": "HuT78 cells", "result": 23.9, "unit": "%"}, {"measurement": "proportion of polyploid giant cancer cells", "setting": "THP-1 cells", "result": "increased proportion"}, {"measurement": "decrease in G0/G1 phase", "setting": "THP-1 cells; vs control", "result": 4.5, "unit": "times"}, {"measurement": "increase in G2/M phase", "setting": "THP-1 cells; vs control", "result": 62.8, "unit": "%"}, {"measurement": "increase of cells in subG0/G1 phase", "setting": "THP-1 cells; vs control", "result": 2.9, "unit": "times"}, {"measurement": "GI50", "setting": "[5]", "result": "400 to 15600", "unit": "nM"}, {"measurement": "GI50 at 72 h", "setting": "[6]", "result": "400 to 8000", "unit": "nM"}]}]}
